Reference: patent publication US20230398130A1, “METHODS AND COMPOSITIONS FOR DIFFERENTIATING STEM CELLS” (Massachusetts Institute of Technology, priority 2020, published 2023)

Key:
ISC-enriched organoids [1] = assay: Primary screen, 384-well 2.5-D organoid differentiation (ENR+CD, 6 days): basal lysozyme secretion (LYZ.NS); type: cell-based, murine; conditions: for Dose.FC.LYZ.NS: primary screen, FC vs plate median; for Z.LYZ.NS: standard z score of FC
Source text: (§1) High-throughput screening.

ISC-enriched organoids [2] = assay: Primary screen, 384-well 2.5-D organoid differentiation (ENR+CD, 6 days, Target Selective Inhibitor Library, vs whole-plate median): ATP (CellTiter-Glo 3D, CTG); conditions: for Dose.FC.CTG: primary screen, FC vs plate median; for Z.CTG: standard z score of FC
ISC-enriched organoids [3] = assay: Primary screen, 384-well 2.5-D organoid differentiation (ENR+CD, 6 days): carbachol-induced lysozyme secretion (LYZ.S); type: cell-based, murine; conditions: primary screen, FC vs plate median
Source text: as §1

Structure (SMILES) | Dose.FC.LYZ.NS (ISC-enriched organoids [1]; Dose 0.08 uM) | Z.LYZ.NS (ISC-enriched organoids [1]; Dose 0.08 uM) | Dose.FC.LYZ.NS (ISC-enriched organoids [1]; Dose 0.40 uM) | Z.LYZ.NS (ISC-enriched organoids [1]; Dose 0.40 uM) | Dose.FC.LYZ.NS (ISC-enriched organoids [1]; Dose 2.00 uM) | Z.LYZ.NS (ISC-enriched organoids [1]; Dose 2.00 uM) | Dose.FC.LYZ.NS (ISC-enriched organoids [1]; Dose 10.00 uM) | Z.LYZ.NS (ISC-enriched organoids [1]; Dose 10.00 uM) | Dose.FC.CTG (ISC-enriched organoids [2]; Dose 0.08 uM) | Z.CTG (ISC-enriched organoids [2]; Dose 0.08 uM) | Dose.FC.CTG (ISC-enriched organoids [2]; Dose 0.40 uM) | Z.CTG (ISC-enriched organoids [2]; Dose 0.40 uM) | Dose.FC.CTG (ISC-enriched organoids [2]; Dose 2.00 uM) | Z.CTG (ISC-enriched organoids [2]; Dose 2.00 uM) | Dose.FC.CTG (ISC-enriched organoids [2]; Dose 10.00 uM) | Z.CTG (ISC-enriched organoids [2]; Dose 10.00 uM) | Dose.FC.LYZ.S (ISC-enriched organoids [3]; Dose 0.08 uM) | Dose.FC.LYZ.S (ISC-enriched organoids [3]; Dose 0.40 uM) | Dose.FC.LYZ.S (ISC-enriched organoids [3]; Dose 2.00 uM) | Dose.FC.LYZ.S (ISC-enriched organoids [3]; Dose 10.00 uM)
Cc1ccc(S(=O)(=O)c2ccc([N+](=O)[O-])o2)cc1 [NSC697923] | 0.091 log 2 fold change | 0.789 | 0.051 log 2 fold change | 0.441 | −0.104 log 2 fold change | −0.906 | −0.154 log 2 fold change | −1.338 | −0.052 log 2 fold change | −0.123 | −0.014 log 2 fold change | −0.033 | −0.101 log 2 fold change | −0.241 | −0.782 log 2 fold change | −1.867 | 0.036 log 2 fold change | 0.108 log 2 fold change | −0.154 log 2 fold change | −0.270 log 2 fold change
CCN(CC)CCCC(C)Nc1nc(C)cc(Nc2ccc3nc(C)cc(N)c3c2)n1 (centres unmarked) [NSC 23766] | 0.081 log 2 fold change | 0.701 | 0.044 log 2 fold change | 0.380 | 0.058 log 2 fold change | 0.506 | 0.009 log 2 fold change | 0.080 | 0.043 log 2 fold change | 0.103 | 0.170 log 2 fold change | 0.406 | 0.117 log 2 fold change | 0.279 | 0.324 log 2 fold change | 0.774 | 0.080 log 2 fold change | 0.090 log 2 fold change | 0.031 log 2 fold change | 0.030 log 2 fold change
C/C(=N\NC(=S)N1CCC1)c1ccccn1 [NSC 319726] | 0.113 log 2 fold change | 0.982 | −0.090 log 2 fold change | −0.780 | −0.152 log 2 fold change | −1.323 | −0.229 log 2 fold change | −1.992 | 0.132 log 2 fold change | 0.316 | −0.185 log 2 fold change | −0.441 | −0.447 log 2 fold change | −1.068 | −1.907 log 2 fold change | −4.555 | 0.060 log 2 fold change | −0.035 log 2 fold change | −0.248 log 2 fold change | −0.327 log 2 fold change
CCCC(C)NC(=O)c1ccc(Cl)c(Cl)c1 (centres unmarked) [NSC 405020] | 0.008 log 2 fold change | 0.071 | −0.028 log 2 fold change | −0.246 | 0.018 log 2 fold change | 0.160 | −0.065 log 2 fold change | −0.570 | −0.059 log 2 fold change | −0.140 | −0.071 log 2 fold change | −0.170 | −0.059 log 2 fold change | −0.141 | −0.058 log 2 fold change | −0.138 | 0.014 log 2 fold change | 0.093 log 2 fold change | 0.002 log 2 fold change | −0.061 log 2 fold change
O=c1cc(N2CCOCC2)oc2c1ccc1ccccc12 [NU7026] | 0.023 log 2 fold change | 0.198 | 0.023 log 2 fold change | 0.198 | −0.058 log 2 fold change | −0.507 | −0.158 log 2 fold change | −1.380 | 0.096 log 2 fold change | 0.230 | 0.104 log 2 fold change | 0.248 | 0.107 log 2 fold change | 0.255 | −0.119 log 2 fold change | −0.284 | 0.021 log 2 fold change | 0.034 log 2 fold change | −0.056 log 2 fold change | −0.198 log 2 fold change
Nc1ncnc2c1c(-c1cccc(OCc3ccccc3)c1)cn2C1CC(CN2CCCC2)C1 (centres unmarked) [NVP-ADW742] | 0.142 log 2 fold change | 1.239 | 0.172 log 2 fold change | 1.499 | −0.095 log 2 fold change | −0.823 | −0.135 log 2 fold change | −1.172 | 0.679 log 2 fold change | 1.622 | 0.663 log 2 fold change | 1.583 | 0.257 log 2 fold change | 0.614 | −0.465 log 2 fold change | −1.112 | 0.245 log 2 fold change | 0.265 log 2 fold change | −0.166 log 2 fold change | −0.210 log 2 fold change
CN1C(=O)C(Cc2c[nH]c3ccccc23)NC1=S (centres unmarked) [Necrostatin-1] | 0.060 log 2 fold change | 0.524 | 0.020 log 2 fold change | 0.174 | 0.154 log 2 fold change | 1.338 | 0.057 log 2 fold change | 0.496 | 0.102 log 2 fold change | 0.244 | 0.168 log 2 fold change | 0.401 | 0.011 log 2 fold change | 0.027 | 0.137 log 2 fold change | 0.328 | 0.077 log 2 fold change | 0.038 log 2 fold change | 0.092 log 2 fold change | 0.229 log 2 fold change
C#Cc1cccc(Nc2ncnc3cc(OCCOC)c(OCCO)cc23)c1 [OSI-420] | 0.115 log 2 fold change | 1.002 | −0.224 log 2 fold change | −1.948 | −0.287 log 2 fold change | −2.498 | −0.325 log 2 fold change | −2.833 | 0.106 log 2 fold change | 0.254 | −0.130 log 2 fold change | −0.311 | −1.263 log 2 fold change | −3.016 | −1.100 log 2 fold change | −2.627 | 0.059 log 2 fold change | −0.221 log 2 fold change | −0.381 log 2 fold change | −0.374 log 2 fold change
C[C@]1(O)C[C@@H](c2nc(-c3ccc4ccc(-c5ccccc5)nc4c3)c3c(N)nccn32)C1 [OSI-906 (Linsitinib)] | 0.013 log 2 fold change | 0.110 | −0.093 log 2 fold change | −0.806 | −0.216 log 2 fold change | −1.882 | −0.229 log 2 fold change | −1.996 | −0.324 log 2 fold change | −0.775 | −0.158 log 2 fold change | −0.377 | −0.277 log 2 fold change | −0.661 | −0.391 log 2 fold change | −0.934 | −0.026 log 2 fold change | −0.119 log 2 fold change | −0.288 log 2 fold change | −0.328 log 2 fold change
NCC(=O)Nc1ccc(-n2nc(C(F)(F)F)cc2-c2ccc3c(ccc4ccccc43)c2)cc1 [OSU-03012 (AR-12)] | 0.087 log 2 fold change | 0.755 | 0.033 log 2 fold change | 0.285 | 0.053 log 2 fold change | 0.460 | −0.049 log 2 fold change | −0.423 | 0.205 log 2 fold change | 0.491 | 0.114 log 2 fold change | 0.272 | 0.233 log 2 fold change | 0.556 | 0.078 log 2 fold change | 0.185 | 0.126 log 2 fold change | 0.113 log 2 fold change | 0.060 log 2 fold change | −0.128 log 2 fold change
